{"source": "paper PMC6895180", "about": "(Nature Communications, 2019)", "key": {"T. b. brucei Squib 427": {"system": "T. b. brucei Squib 427", "test": "Mouse model of acute HAT", "method": "Drinking water and food were available ad libitum throughout the experiment. […] The reference drug suramin was formulated in phospahte-buffered saline (PBS) at 2.5 mg mL^−1 and administered s.i.d. i.p. for 5 days at 10 mg kg^−1 (n = 3). All treatments were initiated 30 min prior to the i.p. infection. […] Parasitaemia was determined by microscopic evaluation of tail vein blood samples at 4, 7, 10, 14 and 21 dpi (pre-set endpoint). As a test of cure, blood samples (250 µL) were collected from treated mice at 21 dpi and were sub-inoculated i.p. in naive Swiss mice (n = 3), followed by monitoring of parasitaemia as follow-up."}, "T. b. brucei BS221": {"system": "T. b. brucei BS221", "test": "Susceptibility assay, BS221 cells", "format": "cell-based, Trypanosoma brucei brucei", "conditions": "for IC50: single determinations", "method": "Susceptibility assays with NY-SM[51], BS221[48] and TbAT1-KO[48] (derived from BS221) cells were performed using 10 concentrations of a 4-fold compound dilution series starting at 64 µM. Parasites were seeded at 4 × 10^3 parasites per well and exposed to drug compound for 72 h, after which resazurin (final concentration of 10 µg mL^−1) was added to the plates. Fluorescence intensities were determined after 6 h."}, "[1]": {"test": "Metabolic stability, rat liver microsomes (phase I and II)", "method": "(§1) Mouse, rat, and pooled human liver microsomes were purchased from a commercial source (Corning) and stored at -80 °C. NADPH generating system solutions A and B and UGT reaction mix solutions A and B (Corning) were kept at -20°C. The test compound and the reference compounds diclofenac (MW […]\n(§2) microsomal stability assay was carried out based on the BD Biosciences Guidelines for Use (TF000017 Rev1.0) with minor adaptations. Metabolic stability of the compounds was studied through the CYP450 superfamily (phase I metabolism) by fortification with reduced nicotinamide adenine dinucleotide phosphate (NADPH) and through uridine glucuronosyl-transferase (UGT) enzymes (phase II metabolism) by fortification with uridine diphosphate glucuronic acid (UDPGA). For the CYP450 and other NADPH dependent enzymes, both compounds were incubated at 5 µM together with 0.5 mg mL-1 liver microsomes in potassium phosphate buffer in a reaction started by the addition of 1 mM NADPH […]\n(§3) At these time points, 20 µL was withdrawn from the reaction mixture and 80 µL cold acetonitrile (ACN) containing the internal standard tolbutamide, was added to inactivate the enzymes and precipitate the proteins. The mixture was vortexed for 30 s and centrifuged at 4 °C for 5 min at 15,000 rpm. The supernatant was stored at -80°C until analysis. For the UGT enzymes, both compounds were incubated at 5 µM together with 0.5 mg mL-1 liver microsomes in a reaction started by the addition of 2 mM UDPGA cofactor. The corresponding loss of parent compound was determined using liquid chromatography (UPLC) (Waters AquityTM) coupled with tandem quadrupole mass spectrometry (MS²) (Waters XevoTM), equipped with an electrospray ionization (ESI) interface and operated in multiple reaction monitoring (MRM) mode. […]"}, "[2]": {"test": "Metabolic stability, mouse liver microsomes (phase I and II)", "method": "as §1, §2, §3"}, "T. brucei NY-SM cells": {"system": "T. brucei NY-SM cells", "test": "Cell cycle analysis by flow cytometry", "format": "cell-based, Trypanosoma brucei", "method": "After 24 h, the cells were harvested and washed with PBS before staining with Hoechst 33342 at 5 µg mL^−1 for 25 min at 37 °C. Cells were analysed on a MACSQuant flow cytometer (Miltenyi Biotec) using the FlowJo X software package."}}, "note": "Values joined by “and” are separate entries in the source; they are usually repeats but may differ in a detail not shown here. Equal entries are not always repeated.", "data": [{"smiles": "Nc1ncnc2c1c(Br)cn2[C@@H]1O[C@H](CO)C[C@H]1O", "note": "[Compound 10, 3’-deoxy-7-Br-tubercidin]", "values": [{"measurement": "tolerability in mice", "setting": "T. b. brucei Squib 427; 6.25 mg kg^−1 orally", "result": "not well tolerated"}]}, {"smiles": "Nc1ncnc2c1ccn2[C@@H]1O[C@H](CO)C[C@H]1O", "note": "[Compound 9, 3’-deoxytubercidin]", "values": [{"measurement": "parasitaemia, individual mice", "setting": "T. b. brucei Squib 427; 6.25 mg/kg bid PO, 4 dpi", "result": 0}, {"measurement": "parasitaemia, individual mice", "setting": "T. b. brucei Squib 427; 6.25 mg/kg bid PO, 7 dpi", "result": 0}, {"measurement": "parasitaemia, individual mice", "setting": "T. b. brucei Squib 427; 6.25 mg/kg bid PO, 10 dpi", "result": 0}, {"measurement": "parasitaemia, individual mice", "setting": "T. b. brucei Squib 427; 6.25 mg/kg bid PO, 14 dpi", "result": 0}, {"measurement": "parasitaemia, individual mice", "setting": "T. b. brucei Squib 427; 6.25 mg/kg bid PO, 21 dpi", "result": 0}, {"measurement": "parasitaemia, individual mice", "setting": "T. b. brucei Squib 427; 12.5 mg/kg bid PO, 4 dpi", "result": 0}, {"measurement": "parasitaemia, individual mice", "setting": "T. b. brucei Squib 427; 12.5 mg/kg bid PO, 7 dpi", "result": 0}, {"measurement": "parasitaemia, individual mice", "setting": "T. b. brucei Squib 427; 12.5 mg/kg bid PO, 10 dpi", "result": 0}, {"measurement": "parasitaemia, individual mice", "setting": "T. b. brucei Squib 427; 12.5 mg/kg bid PO, 14 dpi", "result": 0}, {"measurement": "parasitaemia, individual mice", "setting": "T. b. brucei Squib 427; 12.5 mg/kg bid PO, 21 dpi", "result": 0}, {"measurement": "parasitaemia, individual mice", "setting": "T. b. brucei Squib 427; 25 mg/kg bid PO, 4 dpi", "result": 0}, {"measurement": "parasitaemia, individual mice", "setting": "T. b. brucei Squib 427; 25 mg/kg bid PO, 7 dpi", "result": 0}, {"measurement": "parasitaemia, individual mice", "setting": "T. b. brucei Squib 427; 25 mg/kg bid PO, 10 dpi", "result": 0}, {"measurement": "parasitaemia, individual mice", "setting": "T. b. brucei Squib 427; 25 mg/kg bid PO, 14 dpi", "result": 0}, {"measurement": "parasitaemia, individual mice", "setting": "T. b. brucei Squib 427; 25 mg/kg bid PO, 21 dpi", "result": 0}, {"measurement": "tolerability in mice", "setting": "T. b. brucei Squib 427; all treatment schedules, no adverse reactions, no weight loss", "result": "well tolerated"}, {"measurement": "test of cure: blood of surviving animals at 21 dpi inoculated in treatment-naïve mice", "setting": "T. b. brucei Squib 427; follow-up of parasitaemia", "result": "absence of parasitaemia"}, {"measurement": "blood parasitaemia and survival at 21 dpi", "setting": "T. b. brucei Squib 427; i.p. 10 mg kg^−1 s.i.d. for 5 days", "result": "negative blood parasitaemia and survival of all treated mice"}, {"measurement": "blood parasitaemia and survival at 21 dpi", "setting": "T. b. brucei Squib 427; oral 6.25 mg kg^−1 b.i.d. for 5 days", "result": "negative blood parasitaemia and survival of all treated mice"}, {"measurement": "blood parasitaemia and survival at 21 dpi", "setting": "T. b. brucei Squib 427; oral 12.5 mg kg^−1 b.i.d. for 5 days", "result": "negative blood parasitaemia and survival of all treated mice"}, {"measurement": "blood parasitaemia and survival at 21 dpi", "setting": "T. b. brucei Squib 427; oral 25 mg kg^−1 b.i.d. for 5 days", "result": "negative blood parasitaemia and survival of all treated mice"}, {"measurement": "Inhibition (%)", "setting": "T. b. brucei BS221; BS221, 0.015625 µM", "result": "98% and 95%"}, {"measurement": "Inhibition (%)", "setting": "T. b. brucei BS221; BS221, 0.25 µM", "result": 98, "unit": "%"}, {"measurement": "Inhibition (%)", "setting": "T. b. brucei BS221; BS221, 1 µM", "result": 98, "unit": "%"}, {"measurement": "Inhibition (%)", "setting": "T. b. brucei BS221; BS221, 4 µM", "result": 98, "unit": "%"}, {"measurement": "Inhibition (%)", "setting": "T. b. brucei BS221; BS221, 16 µM", "result": 98, "unit": "%"}, {"measurement": "inhibition at 0.000244141 µM", "setting": "T. b. brucei BS221; Trypanosoma brucei, BS221, 0.000244141 µM", "result": 0, "unit": "%"}, {"measurement": "inhibition at 0.000976563 µM", "setting": "T. b. brucei BS221; Trypanosoma brucei, BS221, 0.000976563 µM", "result": 0, "unit": "%"}, {"measurement": "inhibition at 0.015625 µM", "setting": "T. b. brucei BS221; Trypanosoma brucei, BS221, 0.015625 µM", "result": 97, "unit": "%"}, {"measurement": "inhibition at 0.0625 µM", "setting": "T. b. brucei BS221; Trypanosoma brucei, BS221, 0.0625 µM", "result": 99, "unit": "%"}, {"measurement": "inhibition at 0.25 µM", "setting": "T. b. brucei BS221; Trypanosoma brucei, BS221, 0.25 µM", "result": 99, "unit": "%"}, {"measurement": "inhibition at 1 µM", "setting": "T. b. brucei BS221; Trypanosoma brucei, BS221, 1 µM", "result": 99, "unit": "%"}, {"measurement": "inhibition at 4 µM", "setting": "T. b. brucei BS221; Trypanosoma brucei, BS221, 4 µM", "result": 100, "unit": "%"}, {"measurement": "inhibition at 16 µM", "setting": "T. b. brucei BS221; Trypanosoma brucei, BS221, 16 µM", "result": 99, "unit": "%"}, {"measurement": "inhibition at 64 µM", "setting": "T. b. brucei BS221; Trypanosoma brucei, BS221, 64 µM", "result": 99, "unit": "%"}, {"measurement": "IC50", "setting": "T. b. brucei BS221; Trypanosoma brucei", "result": 6.8, "unit": "nM"}, {"measurement": "EC50", "setting": "T. b. brucei BS221; Trypanosoma brucei, BS221, mean and SEM, n = 2, read-out: EC50, parental line of AT1-KO", "result": "6.4 ± 0.4", "unit": "nM"}, {"measurement": "IC50", "setting": "T. b. brucei BS221", "result": "6.1 nM and 5.4 nM and 7.3 nM"}, {"measurement": "% analogue remaining, EXP 1 / EXP 2", "setting": "[1]; microsomes, 0 min, 5 µM", "result": 100, "unit": "%"}, {"measurement": "% analogue remaining, Mean", "setting": "[1]; microsomes, 0 min, 5 µM", "result": 100, "unit": "%"}, {"measurement": "metabolic stability", "setting": "[1]; s9, 0.5 h", "result": "metabolically stable"}, {"measurement": "% analogue 9 remaining, EXP 1 / EXP 2", "setting": "[2]; microsomes, 0 min, 5 µM", "result": 100, "unit": "%"}, {"measurement": "% analogue 9 remaining, Mean", "setting": "[2]; microsomes, 0 min, 5 µM", "result": 100, "unit": "%"}, {"measurement": "metabolic stability", "setting": "[2]; s9, 0.5 h", "result": "metabolically stable"}, {"measurement": "# cells 2N", "setting": "T. brucei NY-SM cells; 1.4 nM", "result": "18946 and 19862"}, {"measurement": "# cells 4N", "setting": "T. brucei NY-SM cells; 1.4 nM", "result": "4825 and 4846"}, {"measurement": "# cells S", "setting": "T. brucei NY-SM cells; 1.4 nM", "result": "16441 and 16011"}, {"measurement": "% of cells 2N", "setting": "T. brucei NY-SM cells; 1.4 nM", "result": "44.3% and 46.2%"}, {"measurement": "% of cells 4N", "setting": "T. brucei NY-SM cells; 1.4 nM", "result": 11.3, "unit": "%"}, {"measurement": "% of cells S", "setting": "T. brucei NY-SM cells; 1.4 nM", "result": "38.5% and 37.2%"}, {"measurement": "# cells 2N", "setting": "T. brucei NY-SM cells; 3.5 nM", "result": "19884 and 19251"}, {"measurement": "# cells 4N", "setting": "T. brucei NY-SM cells; 3.5 nM", "result": "4669 and 4555"}, {"measurement": "# cells S", "setting": "T. brucei NY-SM cells; 3.5 nM", "result": "15056 and 15140"}, {"measurement": "% of cells 2N", "setting": "T. brucei NY-SM cells; 3.5 nM", "result": "47.3% and 46.7%"}, {"measurement": "% of cells 4N", "setting": "T. brucei NY-SM cells; 3.5 nM", "result": 11.1, "unit": "%"}, {"measurement": "% of cells S", "setting": "T. brucei NY-SM cells; 3.5 nM", "result": "35.9% and 36.8%"}, {"measurement": "# cells 2N", "setting": "T. brucei NY-SM cells; 7 nM", "result": "18100 and 17699"}, {"measurement": "# cells 4N", "setting": "T. brucei NY-SM cells; 7 nM", "result": "3787 and 3626"}, {"measurement": "# cells S", "setting": "T. brucei NY-SM cells; 7 nM", "result": "10717 and 10604"}, {"measurement": "% of cells 2N", "setting": "T. brucei NY-SM cells; 7 nM", "result": "51.1% and 50%"}, {"measurement": "% of cells 4N", "setting": "T. brucei NY-SM cells; 7 nM", "result": "10.7% and 10.2%"}, {"measurement": "% of cells S", "setting": "T. brucei NY-SM cells; 7 nM", "result": "30.2% and 29.9%"}, {"measurement": "cell cycle analysis: impact on DNA synthesis", "setting": "T. brucei NY-SM cells; 24 h, various concentrations", "result": "no major impact on DNA synthesis"}]}]}
